Laboratory results from patent US12595230B2, “Substituted 6,7-dihydro-5H-benzo[7]annulene compounds and their derivatives, processes for their preparation and therapeutic uses thereof” (Sanofi, priority 2020, dated 2026).

Molecular target: T1, ERα (Homo sapiens, UniProt P03372)
T1 construct: host or cells: MCF7
T1 sequence (P03372 1-595): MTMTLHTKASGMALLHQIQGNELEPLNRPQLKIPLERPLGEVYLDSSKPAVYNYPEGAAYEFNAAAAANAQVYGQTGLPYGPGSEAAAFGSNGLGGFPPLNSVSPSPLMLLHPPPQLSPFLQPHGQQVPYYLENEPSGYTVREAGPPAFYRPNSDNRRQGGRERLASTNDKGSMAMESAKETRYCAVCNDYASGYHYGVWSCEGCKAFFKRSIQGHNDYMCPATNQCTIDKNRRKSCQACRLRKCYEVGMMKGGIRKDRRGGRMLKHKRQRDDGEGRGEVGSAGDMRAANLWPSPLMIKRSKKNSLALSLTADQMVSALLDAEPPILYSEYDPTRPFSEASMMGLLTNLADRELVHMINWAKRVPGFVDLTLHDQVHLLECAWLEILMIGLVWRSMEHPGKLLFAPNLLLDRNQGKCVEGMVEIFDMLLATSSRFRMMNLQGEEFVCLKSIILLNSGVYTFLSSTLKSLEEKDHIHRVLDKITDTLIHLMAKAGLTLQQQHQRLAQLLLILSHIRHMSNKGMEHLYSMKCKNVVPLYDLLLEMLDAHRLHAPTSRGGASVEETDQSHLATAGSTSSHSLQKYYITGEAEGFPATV
Assay: Estrogen receptor degradation activity: breast cancer cell ERα in cell western assay (MCF7 cells)
Assay type: cell-based
Conditions: for % Degradation At 0.3 μM: 4 hours, relative to fulvestrant 0.1 μM positive control; for DC50: 4 hours post compound addition, concentration which degrades 50% of the estrogen receptor, read-out: Degradation IC50
Method in brief: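 Compounds were applied to MCF7 cells in stripped-serum, phenol red-free medium for 4 h at final 0.3–0.0000018 μM, with fulvestrant (0.1 μM) as control. Value: IC50 (nM) for 50% ERα degradation.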

`Cc1cc(Cl)ccc1C1=C(c2ccc(CC3CN(CCCF)C3)cc2)c2ccc(C(=O)O)cc2CCC1` [Example 25, 8-(4-chloro-2-methylphenyl)-9-(4-((1-(3-fluoropropyl)azetidin-3-yl)methyl)phenyl)-6,7-dihydro-5H-benzo[7]annulene-3-carboxylic acid] was tested, and the “% Degradation At 0.3 μM” value was 91% and the DC50 was 300 pM.
In the case of `O=C(O)c1ccc2c(c1)CCCC(c1ccc(F)cc1C(F)(F)F)=C2c1ccc(CC2CN(CCCF)C2)cc1` [Example 26, 8-(4-fluoro-2-(trifluoromethyl)phenyl)-9-(4-((1-(3-fluoropropyl)azetidin-3-yl)methyl)phenyl)-6,7-dihydro-5H-benzo[7]annulene-3-carboxylic acid], the “% Degradation At 0.3 μM” value is reported as 92% and the DC50 is reported as 300 pM.
For `O=C(O)c1ccc2c(c1)CCCC(c1ccc(Cl)cc1C(F)(F)F)=C2c1ccc(CC2CN(CCCF)C2)cc1` [Example 27, 8-(4-chloro-2-(trifluoromethyl)phenyl)-9-(4-((1-(3-fluoropropyl)azetidin-3-yl)methyl)phenyl)-6,7-dihydro-5H-benzo[7]annulene-3-carboxylic acid], the “% Degradation At 0.3 μM” value was 94% and the DC50 was 500 pM.
`Cc1c(F)cccc1C1=C(c2ccc(CC3CN(CCCF)C3)cc2)c2ccc(C(=O)O)cc2CCC1` [Example 28, 8-(3-fluoro-2-methylphenyl)-9-(4-((1-(3-fluoropropyl)azetidin-3-yl)methyl)phenyl)-6,7-dihydro-5H-benzo[7]annulene-3-carboxylic acid] was tested, and the “% Degradation At 0.3 μM” value was 93% and the DC50 was 400 pM.
`Cc1cccc(C2=C(c3ccc(CC4CN(CCCF)C4)cc3)c3ccc(C(=O)O)cc3CCC2)c1Cl` [Example 30, 8-(2-chloro-3-methylphenyl)-9-(4-((1-(3-fluoropropyl)azetidin-3-yl)methyl)phenyl)-6,7-dihydro-5H-benzo[7]annulene-3-carboxylic acid] was tested, and the “% Degradation At 0.3 μM” value was 94% and the DC50 was 400 pM.
With `O=C(O)c1ccc2c(c1)CCCC(c1c(F)cccc1C(F)(F)F)=C2c1ccc(CC2CN(CCCF)C2)cc1` [Example 31, 8-(2-fluoro-6-(trifluoromethyl)phenyl)-9-(4-((1-(3-fluoropropyl)azetidin-3-yl)methyl)phenyl)-6,7-dihydro-5H-benzo[7]annulene-3-carboxylic acid] the “% Degradation At 0.3 μM” value was 89% and the DC50 was 300 pM.
In the case of `O=C(O)c1ccc2c(c1)CCCC(c1cccc(Cl)c1F)=C2c1ccc(CC2CN(CCCF)C2)cc1` [Example 32, 8-(3-chloro-2-fluorophenyl)-9-(4-((1-(3-fluoropropyl)azetidin-3-yl)methyl)phenyl)-6,7-dihydro-5H-benzo[7]annulene-3-carboxylic acid], the “% Degradation At 0.3 μM” value is reported as 94% and the DC50 is reported as 600 pM.
For `Cc1cc(F)ccc1C1=C(c2ccc(CC3CN(CCCF)C3)cc2)c2ccc(C(=O)O)cc2CCC1` [Example 33, 8-(4-fluoro-2-methylphenyl)-9-(4-((1-(3-fluoropropyl)azetidin-3-yl)methyl)phenyl)-6,7-dihydro-5H-benzo[7]annulene-3-carboxylic acid], the “% Degradation At 0.3 μM” value was 89% and the DC50 was 200 pM.
`O=C(O)c1ccc2c(c1)CCCC(c1c(Cl)cccc1C(F)(F)F)=C2c1ccc(CC2CN(CCCF)C2)cc1` [Example 34, 8-(2-chloro-6-(trifluoromethyl)phenyl)-9-(4-((1-(3-fluoropropyl)azetidin-3-yl)methyl)phenyl)-6,7-dihydro-5H-benzo[7]annulene-3-carboxylic acid] was tested, and the “% Degradation At 0.3 μM” value was 79% and the DC50 was 200 pM.
In the case of `O=C(O)c1ccc2c(c1)CCCC(c1ccccc1F)=C2c1ccc(CC2CN(CCCF)C2)cc1` [Example 35, 8-(2-fluorophenyl)-9-(4-((1-(3-fluoropropyl)azetidin-3-yl)methyl)phenyl)-6,7-dihydro-5H-benzo[7]annulene-3-carboxylic acid], the “% Degradation At 0.3 μM” value is reported as 91% and the DC50 is reported as 400 pM.
For `COc1cc(F)ccc1C1=C(c2ccc(CC3CN(CCCF)C3)cc2)c2ccc(C(=O)O)cc2CCC1` [Example 36, 8-(4-fluoro-2-methoxyphenyl)-9-(4-((1-(3-fluoropropyl)azetidin-3-yl)methyl)phenyl)-6,7-dihydro-5H-benzo[7]annulene-3-carboxylic acid], the “% Degradation At 0.3 μM” value was 89% and the DC50 was 600 pM.
`CC(C)CC1=C(c2ccc(CC3CN(CCCF)C3)cc2)c2ccc(C(=O)O)cc2CCC1` [Example 37, 9-(4-((1-(3-fluoropropyl)azetidin-3-yl)methyl)phenyl)-8-isobutyl-6,7-dihydro-5H-benzo[7]annulene-3-carboxylic acid] was tested, and the “% Degradation At 0.3 μM” value was 87% and the DC50 was 400 pM.
For `O=C(O)c1ccc2c(c1)CCCC(C1CCOCC1)=C2c1ccc(CC2CN(CCCF)C2)cc1` [Example 38, 9-(4-((1-(3-fluoropropyl)azetidin-3-yl)methyl)phenyl)-8-(tetrahydro-2H-pyran-4-yl)-6,7-dihydro-5H-benzo[7]annulene-3-carboxylic acid], the “% Degradation At 0.3 μM” value was 83% and the DC50 was 7000 pM.
With `O=C(O)c1ccc2c(c1)CCCC(c1ccc(Cl)cc1Cl)=C2c1ccc(C(=O)C2CN(CCCF)C2)cc1` [Example 39, 8-(2,4-Dichlorophenyl)-9-(4-(1-(3-fluoropropyl)azetidine-3-carbonyl)phenyl)-6,7-dihydro-5H-benzo[7]annulene-3-carboxylic Acid] the “% Degradation At 0.3 μM” value was 92% and the DC50 was 1200 pM.
`O=C(O)c1ccc2c(c1)CCCC(c1ccc(Cl)cc1Cl)=C2c1ccc(C(F)(F)C2CN(CCCF)C2)cc1` [Example 40, 8-(2,4-dichlorophenyl)-9-(4-(difluoro(1-(3-fluoropropyl)azetidin-3-yl)methyl)phenyl)-6,7-dihydro-5H-benzo[7]annulene-3-carboxylic acid] was tested, and the “% Degradation At 0.3 μM” value was 91% and the DC50 was 400 pM.
With `O=C(O)c1ccc2c(c1)CCCC(c1ccc(F)c(F)c1)=C2c1ccc(CC2CN(CCCF)C2)cc1` [Example 45, 8-(3,4-difluorophenyl)-9-(4-((1-(3-fluoropropyl)azetidin-3-yl)methyl)phenyl)-6,7-dihydro-5H-benzo[7]annulene-3-carboxylic acid] the “% Degradation At 0.3 μM” value was 86% and the DC50 was 300 pM.
With `O=C(O)c1ccc2c(c1)CCCC(c1ccc(Cl)cc1Cl)=C2c1ccc(CC2(F)CN(CCCF)C2)cc1` [Example 46, 8-(2,4-dichlorophenyl)-9-(4-((3-fluoro-1-(3-fluoropropyl)azetidin-3-yl)methyl)phenyl)-6,7-dihydro-5H-benzo[7]annulene-3-carboxylic acid] the “% Degradation At 0.3 μM” value was 88% and the DC50 was 600 pM.
With `Cl.O=C(O)c1ccc2c(c1)CCCC(c1ccc(Cl)cc1Cl)=C2c1ccc(CC2CN(CCCF)C2)cc1F` [Example 47, 8-(2,4-dichlorophenyl)-9-(2-fluoro-4-((1-(3-fluoropropyl)azetidin-3-yl)methyl)phenyl)-6,7-dihydro-5H-benzo[7]annulene-3-carboxylic acid] the “% Degradation At 0.3 μM” value was 93% and the DC50 was 400 pM.
With `Cc1cc(C2=C(c3ccc(Cl)cc3Cl)CCCc3cc(C(=O)O)ccc32)ccc1CC1CN(CCCF)C1.Cl` [Example 48, 8-(2,4-dichlorophenyl)-9-(4-((1-(3-fluoropropyl)azetidin-3-yl)methyl)-3-methylphenyl)-6,7-dihydro-5H-benzo[7]annulene-3-carboxylic acid] the “% Degradation At 0.3 μM” value was 86% and the DC50 was 500 pM.
With `Cl.O=C(O)c1ccc2c(c1)OCCC(c1ccccc1Cl)=C2c1ccc(CC2CN(CCCF)C2)cc1` [Example 49, 4-(2-chlorophenyl)-5-(4-((1-(3-fluoropropyl)azetidin-3-yl)methyl)phenyl)-2,3-dihydrobenzo[b]oxepine-8-carboxylic acid] the “% Degradation At 0.3 μM” value was 82% and the DC50 was 3400 pM.
With `O=C(O)c1ccc2c(c1)CCCC(C1=CC3(C1)CC(F)(F)C3)=C2c1ccc(CC2CN(CCCF)C2)cc1` [Example 50, 8-(6,6-difluorospiro[3.3]hept-1-en-2-yl)-9-(4-((1-(3-fluoropropyl)azetidin-3-yl)methyl)phenyl)-6,7-dihydro-5H-benzo[7]annulene-3-carboxylic acid] the “% Degradation At 0.3 μM” value was 88% and the DC50 was 10500 pM.
In the case of `O=C(O)c1ccc2c(c1)CCCC(C1CC3(C1)CC(F)(F)C3)=C2c1ccc(CC2CN(CCCF)C2)cc1` [Example 51, 8-(6,6-difluorospiro[3.3]heptan-2-yl)-9-(4-((1-(3-fluoropropyl)azetidin-3-yl)methyl)phenyl)-6,7-dihydro-5H-benzo[7]annulene-3-carboxylic acid], the “% Degradation At 0.3 μM” value is reported as 89% and the DC50 is reported as 700 pM.
With `Cl.O=C(O)c1ccc2c(c1)SCCC(c1ccc(Cl)cc1Cl)=C2c1ccc(CC2CN(CCCF)C2)cc1` [Example 52, 4-(2,4-dichlorophenyl)-5-(4-((1-(3-fluoropropyl)azetidin-3-yl)methyl)phenyl)-2,3-dihydrobenzo[b]thiepine-8-carboxylic acid] the “% Degradation At 0.3 μM” value was 54% and the DC50 was 255000 pM.
For `O=C(O)c1ccc2c(c1)CCCC(c1cccc3c1CC3)=C2c1ccc(CC2CN(CCCF)C2)cc1` [Example 53, 8-(bicyclo[4.2.0]octa-1(6),2,4-trien-2-yl)-9-(4-((1-(3-fluoropropyl)azetidin-3-yl)methyl)phenyl)-6,7-dihydro-5H-benzo[7]annulene-3-carboxylic acid], the “% Degradation At 0.3 μM” value was 91% and the DC50 was 400 pM.
